A word on the IC50: it is the midpoint of a concentration-inhibition curve. As a reminder, the GI50 is the concentration giving 50% growth inhibition.

Data on five compounds can be found in patent US10160747B2, “Compounds and methods for kinase modulation, and indications therefor” (Plexxikon Inc., priority 2016, dated 2018).

In one test the target is T1, c-KIT (Homo sapiens, UniProt P10721).
T1 construct: purchased Millipore 14-559K
Nature of the test: c-KIT recombinant enzyme kinase assay (AlphaScreen). To be noted: 100 ATP, 8 pt. Type of test: biochemical. How it is done: (§1) In order to determine the effect of compounds on FLT3 catalytic activity, kinase assays using recombinant enzymes and AlphaScreen® technology have been established. The catalytic activity of c-kit activity was also measured to determine selectivity of the compounds. When the kinases are catalytically active, they phosphorylate a biotinylated peptide substrate on tyrosine residues. Using AlphaScreen® technology, the ability of the compounds to affect the catalytic activity of the kinases can be measured quantitatively. The peptide substrate is immobilized by the AlphaScreen® Streptavidin Donor beads and, upon phosphorylation by a tyrosine kinase, can bind to AlphaScreen® Anti-Phosphotyrosine (PY20) Acceptor beads. Upon excitation of these beads with laser light at 680 nm, singlet oxygen is produced. This singlet oxygen is rapidly quenched, unless the AlphaScreen® Anti-Phosphotyrosine (PY20) Acceptor beads are in close proximity, in which case a proximity signal can be measured at 580 nm. In the presence of catalytic activity, there is a very strong proximity signal. Selective kinase inhibitors affect a decrease in this proximity signal through a decrease in tyrosine phosphorylation of the peptide substrate.
(§2) The assay was performed as summarized below.
(§3) Poly (Glu4-Tyr) Peptide, biotin conjugate [Biotin-GG(EEEEY)10EE] (SEQ ID NO: 4)
(§4) Final concentration=30 nM
(§5) Adenosine Triphosphate (ATP)
(§6) Final concentration for IC50 determination=10 μM (FLT3-D835Y or FLT3-ITD) or 100 μM (c-KIT)
(§7) AlphaScreen® Phosphotyrosine (PY20) Assay Kit
(§8) Final concentration=10 μg/mL
(§9) Dilute compounds in DMSO to 20× final concentration.
(§10) Add 1 μL of compound to each well of 384 well reaction plate (Perkin Elmer #6005359).
(§11) Mix enzyme and Poly (Glu4-Tyr) Peptide substrate at 1.33× final concentration in assay buffer.
(§12) Mix ATP at 5× final concentration in assay buffer.
(§13) Add 15 μL enzyme/substrate mixture to the reaction plate.
(§14) Add 4 μL of ATP to the reaction plate.
(§15) Mix Streptavidin Donor beads at 6× final concentration in Stop/Detection buffer.
(§16) Add 5 μL Streptavidin Donor beads to the reaction plate. Centrifuge 1 minute, shake to mix, and incubate at room temperature for 20 minutes.
(§17) Mix Anti-Phosphotyrosine (PY20) Acceptor beads at 6× final concentration in Stop/Detection buffer.
(§18) Add 5 μL Anti-Phosphotyrosine (PY20) beads to the reaction plate.
(§19) Centrifuge 1 minute, shake to mix, and incubate at room temperature for 60 minutes.
(§20) Read plate on Wallac EnVision™ 2103 Multilabel Reader.
(In general: In Alpha technology, singlet oxygen from a donor bead excites a nearby acceptor bead.)

For the next test, the target named is T2, FLT3-D835Y (Homo sapiens, UniProt P36888, D835Y).
T2 construct: purchased Invitrogen PV3967
T2 sequence (P36888 27-993 D835Y): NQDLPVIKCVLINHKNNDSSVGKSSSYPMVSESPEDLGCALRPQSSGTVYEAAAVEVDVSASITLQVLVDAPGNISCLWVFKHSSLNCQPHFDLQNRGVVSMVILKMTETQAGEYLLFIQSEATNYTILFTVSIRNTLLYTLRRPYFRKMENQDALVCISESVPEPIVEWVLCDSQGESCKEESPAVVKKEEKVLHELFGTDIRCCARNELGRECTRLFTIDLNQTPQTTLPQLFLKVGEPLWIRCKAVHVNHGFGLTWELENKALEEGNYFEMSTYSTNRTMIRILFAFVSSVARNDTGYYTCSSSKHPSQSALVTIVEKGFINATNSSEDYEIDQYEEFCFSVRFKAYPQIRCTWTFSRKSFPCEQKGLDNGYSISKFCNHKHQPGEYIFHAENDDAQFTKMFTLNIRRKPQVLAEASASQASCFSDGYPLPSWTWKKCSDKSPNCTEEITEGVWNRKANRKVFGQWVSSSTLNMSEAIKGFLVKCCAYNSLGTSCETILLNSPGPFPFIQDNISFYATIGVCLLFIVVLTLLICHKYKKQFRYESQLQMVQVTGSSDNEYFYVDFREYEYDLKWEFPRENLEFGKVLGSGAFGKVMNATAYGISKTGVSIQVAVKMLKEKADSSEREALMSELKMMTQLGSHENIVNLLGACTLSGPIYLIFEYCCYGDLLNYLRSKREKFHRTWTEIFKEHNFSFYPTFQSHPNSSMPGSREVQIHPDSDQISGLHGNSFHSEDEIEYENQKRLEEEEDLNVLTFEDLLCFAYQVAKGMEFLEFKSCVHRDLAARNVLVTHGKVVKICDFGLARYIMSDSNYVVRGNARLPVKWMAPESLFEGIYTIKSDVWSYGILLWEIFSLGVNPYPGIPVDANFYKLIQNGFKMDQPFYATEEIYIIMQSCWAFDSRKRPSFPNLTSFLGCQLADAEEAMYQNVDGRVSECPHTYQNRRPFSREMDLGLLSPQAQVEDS
In words: FLT3-D835Y recombinant enzyme kinase assay (AlphaScreen). To be noted: 8 pt, GMean. The format is biochemical. On the procedure:
as §1, §2, §3, §4, §5, §6, §7, §8, §9, §10, §11, §12, §13, §14, §15, §16, §17, §18, §19, §20

The next test has as its target T3, FLT3-ITD (Homo sapiens, UniProt P36888).
T3 sequence (P36888 1-993): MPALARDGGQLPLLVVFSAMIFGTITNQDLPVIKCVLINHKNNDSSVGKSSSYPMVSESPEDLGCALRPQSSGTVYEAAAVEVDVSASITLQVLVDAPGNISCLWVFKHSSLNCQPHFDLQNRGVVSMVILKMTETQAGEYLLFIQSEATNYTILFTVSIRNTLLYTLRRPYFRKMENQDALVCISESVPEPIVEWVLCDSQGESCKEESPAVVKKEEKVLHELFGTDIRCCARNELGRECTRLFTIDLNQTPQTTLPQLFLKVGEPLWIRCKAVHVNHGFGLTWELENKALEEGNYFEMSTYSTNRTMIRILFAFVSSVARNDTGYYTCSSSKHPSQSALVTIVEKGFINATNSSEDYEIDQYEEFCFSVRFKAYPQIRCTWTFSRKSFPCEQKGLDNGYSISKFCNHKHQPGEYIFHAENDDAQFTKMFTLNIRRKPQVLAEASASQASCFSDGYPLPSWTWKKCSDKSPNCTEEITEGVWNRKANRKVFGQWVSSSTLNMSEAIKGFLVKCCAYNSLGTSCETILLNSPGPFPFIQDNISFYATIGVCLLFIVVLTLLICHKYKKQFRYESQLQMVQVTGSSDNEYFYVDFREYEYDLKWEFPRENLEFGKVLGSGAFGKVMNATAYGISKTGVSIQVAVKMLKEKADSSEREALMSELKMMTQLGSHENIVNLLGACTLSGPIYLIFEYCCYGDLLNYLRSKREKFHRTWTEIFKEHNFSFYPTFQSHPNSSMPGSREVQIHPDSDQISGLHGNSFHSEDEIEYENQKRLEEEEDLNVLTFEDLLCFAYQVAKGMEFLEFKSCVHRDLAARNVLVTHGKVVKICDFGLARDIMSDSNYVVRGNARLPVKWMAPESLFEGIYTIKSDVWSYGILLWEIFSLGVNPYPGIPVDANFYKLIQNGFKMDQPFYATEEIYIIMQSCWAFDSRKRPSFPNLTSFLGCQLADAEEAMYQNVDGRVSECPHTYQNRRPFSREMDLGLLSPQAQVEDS
Nature of the test: FLT3-ITD recombinant enzyme kinase assay (AlphaScreen). Type of test: biochemical. Particulars: 8 pt; read-out: FLT3_ITD 8 pt: IC50. How it is done:
as §1, §2, §3, §4, §5, §6, §7, §8, §9, §10, §11, §12, §13, §14, §15, §16, §17, §18, §19, §20

Test [1] has as its system MOLM-14 D835Y (endogenous FLT3 ITD and transfected FLT3 D835Y). Nature of the test: MOLM-14 D835Y cell proliferation assay (CellTiter-Glo). The format is cell-based. To be noted: Homo sapiens, MOLM-14, 72 h; 3 d growth, GMean. In outline:
(§21)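 MOLM-14 derivatives carrying D835Y or F691L, selected under escalating AC220, were seeded at 1×10^4 cells/well and exposed to an 8-point 1:3 compound series (1 to 0.00046 μM, 0.2% DMSO final) for three days at 37° C., 5% CO2. CellTiter-Glo luminescence (ATP content) versus concentration gave IC50.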
In general terms: ATP-based viability assays read luminescence as a measure of living cells.

The target in another test is T4, BA/F3-FLT3-ITD + D835Y (Homo sapiens, UniProt P36888, D835Y, cells depend on it, form not given).
T4 sequence (P36888 with tags, fused parts or gaps INS600HVDFREYEYD/D835Y): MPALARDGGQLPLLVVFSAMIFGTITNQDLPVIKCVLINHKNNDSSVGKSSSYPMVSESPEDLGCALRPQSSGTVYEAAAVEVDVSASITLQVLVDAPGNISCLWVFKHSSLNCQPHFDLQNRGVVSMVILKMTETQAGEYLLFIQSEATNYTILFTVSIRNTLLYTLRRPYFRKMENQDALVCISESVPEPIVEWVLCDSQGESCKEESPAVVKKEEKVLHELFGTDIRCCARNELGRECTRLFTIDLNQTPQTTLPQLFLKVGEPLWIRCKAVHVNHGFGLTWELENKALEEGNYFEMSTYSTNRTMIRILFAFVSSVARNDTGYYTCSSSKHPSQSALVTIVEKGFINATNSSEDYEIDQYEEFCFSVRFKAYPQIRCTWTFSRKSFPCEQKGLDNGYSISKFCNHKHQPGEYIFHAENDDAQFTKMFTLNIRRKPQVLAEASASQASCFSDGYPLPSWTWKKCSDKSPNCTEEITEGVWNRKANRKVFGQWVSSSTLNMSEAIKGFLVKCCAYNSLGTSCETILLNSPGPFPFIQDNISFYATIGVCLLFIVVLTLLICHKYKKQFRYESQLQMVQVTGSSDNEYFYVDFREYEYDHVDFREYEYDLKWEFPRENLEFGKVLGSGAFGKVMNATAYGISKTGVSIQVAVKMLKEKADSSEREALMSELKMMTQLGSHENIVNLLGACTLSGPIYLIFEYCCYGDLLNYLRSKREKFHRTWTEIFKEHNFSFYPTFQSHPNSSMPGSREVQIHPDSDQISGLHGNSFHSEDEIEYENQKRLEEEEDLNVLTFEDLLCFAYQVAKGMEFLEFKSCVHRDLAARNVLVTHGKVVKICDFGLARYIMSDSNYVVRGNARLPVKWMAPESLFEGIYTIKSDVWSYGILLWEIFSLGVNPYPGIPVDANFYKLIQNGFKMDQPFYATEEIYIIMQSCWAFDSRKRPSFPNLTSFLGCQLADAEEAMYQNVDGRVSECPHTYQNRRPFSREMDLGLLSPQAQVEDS
Nature of the test: Engineered BA/F3 cell growth assay, FLT3 ITD/D835Y. Type of test: cell-based, murine. Particulars: 3 d growth. The method in brief:
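IC50 derived from CellTiter-Glo ATP luminescence after 3 days at 37 °C, 5% CO2, over eight 1:3 dilutions from 1 μM (0.2% DMSO final). Cells: IL-3-independent murine Ba/F3 expressing full-length FLT3 ITD/D835Y, 1×10^4 per well.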

Test [2] deals with MOLM-14 F691L (endogenous FLT3 ITD and transfected FLT3 F691L). Nature of the test: MOLM-14 F691L cell proliferation assay (CellTiter-Glo). Type of test: cell-based. To be noted: Homo sapiens, MOLM-14, 72 h; 3 d growth, GMean. In outline:
as §21

SMILES strings stand for the structures.

T1 sequence (P10721 26-976): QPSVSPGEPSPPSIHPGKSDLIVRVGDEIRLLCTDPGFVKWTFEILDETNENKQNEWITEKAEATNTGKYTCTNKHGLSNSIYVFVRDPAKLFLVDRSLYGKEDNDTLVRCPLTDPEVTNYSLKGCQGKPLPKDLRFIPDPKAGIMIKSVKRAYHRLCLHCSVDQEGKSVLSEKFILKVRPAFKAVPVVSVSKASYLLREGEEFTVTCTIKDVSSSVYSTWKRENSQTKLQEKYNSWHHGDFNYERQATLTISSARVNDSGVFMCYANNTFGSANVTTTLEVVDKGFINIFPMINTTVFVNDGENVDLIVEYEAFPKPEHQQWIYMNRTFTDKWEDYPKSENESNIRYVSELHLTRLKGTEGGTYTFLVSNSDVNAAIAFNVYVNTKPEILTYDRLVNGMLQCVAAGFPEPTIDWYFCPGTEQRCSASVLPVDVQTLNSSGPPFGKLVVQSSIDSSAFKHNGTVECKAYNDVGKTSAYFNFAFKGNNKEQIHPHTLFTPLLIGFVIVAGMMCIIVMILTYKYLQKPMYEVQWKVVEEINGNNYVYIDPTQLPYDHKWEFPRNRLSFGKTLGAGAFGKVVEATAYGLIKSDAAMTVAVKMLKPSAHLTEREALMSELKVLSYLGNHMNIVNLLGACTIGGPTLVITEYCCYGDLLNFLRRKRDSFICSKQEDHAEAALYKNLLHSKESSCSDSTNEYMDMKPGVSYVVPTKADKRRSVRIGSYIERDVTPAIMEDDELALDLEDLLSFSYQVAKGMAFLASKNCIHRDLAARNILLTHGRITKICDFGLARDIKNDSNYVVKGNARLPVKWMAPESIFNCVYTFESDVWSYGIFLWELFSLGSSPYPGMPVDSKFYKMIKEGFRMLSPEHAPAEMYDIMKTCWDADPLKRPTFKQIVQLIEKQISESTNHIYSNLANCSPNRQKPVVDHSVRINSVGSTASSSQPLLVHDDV

As to `COc1ncc(NC(=O)Cc2ccc(-c3cnc(Nc4cn[nH]c4)nc3)c(F)c2)cc1C(F)(F)F` [Compound P-0028, 2-[3-fluoro-4-[2-(1H-pyrazol-4-ylamino)pyrimidin-5-yl]phenyl]-N-[6-methoxy-5-(trifluoromethyl)-3-pyridyl]acetamide], the IC50 on c-KIT, at FLT3-D835Y and on FLT3-ITD was 0.0001 to 10 µM throughout.
On to `COc1ncc(NC(=O)Cc2ccc(-c3cnc4[nH]nc(F)c4c3)cc2)cc1C(F)(F)F` [Compound P-0245, 2-[4-(3-fluoro-1H-pyrazolo[3,4-b]pyridin-5-yl)phenyl]-N-[6-methoxy-5-(trifluoromethyl)-3-pyridyl]acetamide], for which the IC50 on c-KIT and at FLT3-D835Y was 0.0001 to 10 µM each time.
In the case of `Cn1cc(Nc2ncc(-c3ccc(CC(=O)Nc4cc(F)c(F)cn4)cc3)cn2)cn1` [Compound P-0163, N-(4,5-difluoro-2-pyridyl)-2-[4-[2-[(1-methylpyrazol-4-yl)amino]pyrimidin-5-yl]phenyl]acetamide], the half-maximal inhibitory concentration (IC50) on c-KIT and on FLT3-ITD was 0.0001 to 10 µM in each case.
Regarding `CCC(=O)c1c[nH]c2ncc(-c3ccc(CC(=O)Nc4cnc(OC)c(C(F)(F)F)c4)c(F)c3)cc12` [Compound P-0049, 2-[2-fluoro-4-(3-propanoyl-1H-pyrrolo[2,3-b]pyridin-5-yl)phenyl]-N-[6-methoxy-5-(trifluoromethyl)-3-pyridyl]acetamide], the IC50 (in test [1]; at c-KIT; in test [2]) was 0.0001 to 10 µM in each case. In addition, the concentration for 50% growth inhibition (GI50) at BA/F3-FLT3-ITD + D835Y fell in the range of 0.0001 to 10 µM.
As to `O=C(Cc1ccc(-c2cnc3[nH]c(C4CC4)cc3c2)cc1F)Nc1cncc(C(F)(F)F)c1` [Compound P-0080, 2-(4-(2-cyclopropyl-1H-pyrrolo[2,3-b]pyridin-5-yl)-2-fluorophenyl)-N-(5-(trifluoromethyl)pyridin-3-yl)acetamide], the IC50 at c-KIT, on FLT3-D835Y and at FLT3-ITD was 0.0001 to 10 µM throughout.
